# Assay results reported in EP4800013A1, “PARG INHIBITOR” (Shanghai Qilu Pharmaceutical Research and Development …, priority 2023, dated 2025).
# pIC50: −log10 of the molar value. Like-named read-outs stand apart in the source and are kept apart here.
# What was measured:
# KURAMOCHI cells = test: Inhibition of proliferation of KURAMOCHI cells (CellTiter-Glo, intracellular ATP); assay type: cell-based; conditions: 168 h, incubated for 7 days, read-out: IC50 against KURAMOCHI cells
# Summary of the method: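 KURAMOCHI cells seeded at 4000/well, incubated overnight, then treated with 9-point 1:4 compound series from 10 µM (0.5% DMSO) for 7 days at 37°C, 5% CO2. Viability read by CellTiter-Glo luminescence; inhibition normalised to medium-only (100%) and DMSO (0%) controls, IC50 from variable-slope four-parameter fit.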
# PARG = target: T1, PARG (Homo sapiens, UniProt Q86W56); test: Enzymatic inhibitory activity against PARG, HTRF assay; assay type: biochemical; conditions: HTRF; PARylated PARP1 protein as substrate; 60 minutes at room temperature; read-out: IC50 against PARG enzyme
# T1 construct: made in house
# T1 sequence (Q86W56 whole entry): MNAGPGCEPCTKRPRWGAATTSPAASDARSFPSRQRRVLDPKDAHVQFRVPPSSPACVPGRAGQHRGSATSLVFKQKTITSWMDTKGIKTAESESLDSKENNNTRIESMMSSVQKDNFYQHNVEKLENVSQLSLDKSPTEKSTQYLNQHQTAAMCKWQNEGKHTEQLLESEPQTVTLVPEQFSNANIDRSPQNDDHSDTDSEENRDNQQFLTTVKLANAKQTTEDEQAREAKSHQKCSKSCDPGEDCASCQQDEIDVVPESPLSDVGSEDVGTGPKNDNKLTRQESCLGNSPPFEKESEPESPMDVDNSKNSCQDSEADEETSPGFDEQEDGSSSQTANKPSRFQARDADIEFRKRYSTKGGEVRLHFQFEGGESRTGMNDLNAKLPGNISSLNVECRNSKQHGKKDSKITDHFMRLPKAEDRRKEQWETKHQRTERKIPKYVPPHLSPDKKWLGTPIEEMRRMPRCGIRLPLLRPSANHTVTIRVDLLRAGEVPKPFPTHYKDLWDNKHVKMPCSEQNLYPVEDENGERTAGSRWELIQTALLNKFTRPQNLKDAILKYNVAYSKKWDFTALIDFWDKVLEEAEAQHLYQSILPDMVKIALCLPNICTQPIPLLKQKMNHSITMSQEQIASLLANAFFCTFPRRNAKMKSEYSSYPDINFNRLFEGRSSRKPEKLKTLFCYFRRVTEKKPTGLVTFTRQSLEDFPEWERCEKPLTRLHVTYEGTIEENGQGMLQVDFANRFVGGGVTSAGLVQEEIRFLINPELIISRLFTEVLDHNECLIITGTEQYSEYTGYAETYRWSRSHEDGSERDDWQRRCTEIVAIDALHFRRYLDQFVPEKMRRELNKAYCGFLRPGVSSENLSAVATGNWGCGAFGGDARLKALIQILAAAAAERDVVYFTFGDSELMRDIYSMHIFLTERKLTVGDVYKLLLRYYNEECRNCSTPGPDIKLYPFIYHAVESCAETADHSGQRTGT
# Summary of the method: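 Purified PARG pre-incubated with compounds (top 10 µM, 3- to 5-fold dilutions, duplicates) 15 min at room temperature, then PARylated PARP1 substrate added for 60 min in Tris pH 7.4 buffer with DTT, EDTA/EGTA, KCl. HTRF (His-Tb/SA-XL665) read-out; IC50 by four-parameter logistic fit, normalised to DMSO and control-inhibitor wells.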
# [1] = system: KURAMOCHI ovarian cancer xenograft model; test: In vivo efficacy study in KURAMOCHI ovarian cancer xenograft model; conditions: for TGI (%) / Tumor volume (mm^3): PO; for Tumor volume (mm^3): Mean ± SEM
# Excerpt: (§1) NOD SCID mice, female, SPF grade, purchased from Beijing Anikeepter Biotech Co., Ltd.
# KURAMOCHI cells, purchased from JCRB.
# (§2) The culture medium was changed weekly. […] Tumor cells in the logarithmic growth phase were used for in vivo implantation.
# (§3) A total of 35 mice were inoculated: 35 mice for the efficacy study; 15 mice for the PK/PD study; 10 mice remaining after grouping. When the tumor volume reached approximately 150 to 200 mm^3, the mice were grouped for dosing to initiate the efficacy study. Specifically, they were divided into 7 groups, with 5 mice per group. The remaining animals were grouped for dosing when the tumor volume reached approximately 250 mm^3.
# (§4) b. Treatment was initiated after grouping, with a dosing volume of 10 µL/g body weight via oral administration (PO). Animals were weighed daily before dosing and administered once daily for 21 consecutive days. Tumor diameters were measured twice weekly. c. Tumor volume (TV) was measured twice weekly to monitor changes in tumor size and growth rate. Tumor volume was calculated as: V = 1/2 × a × b^2, where a and b represent tumor length and tumor width, respectively. The growth inhibitory effect of compounds on tumor tissue was evaluated using tumor growth inhibition (TGI (%)). […] Data for both the treatment group and the negative control group were collected on the same day. d. The mice were weighed during tumor measurements. The relationship between changes in body weight and time of treatment was recorded. The survival and health status of the mice, including general conditions such as activity level and food intake during the dosing period, were also observed. […] Treatment was resumed when the body weight recovered to within 10% of baseline. […] Nutritional gel supplementation was provided during treatment discontinuation. e. At the study endpoint, the mice were euthanized.
# [2] = system: KURAMOCHI ovarian cancer xenograft model; conditions: mouse, in vivo, po
# Excerpt: as §1
# KURAMOCHI cells, purchased from JCRB.
# as §2, §3, §4
# [3] = Pharmacokinetic evaluation in BALB/c nude mice (PO); assay type: in vivo; conditions: mouse, in vivo, 30 mg/kg
# Method: Using mice as test animals, the compounds of the present disclosure were administered via intravenous bolus and oral injection. Plasma samples were collected at specific time points. Compound concentrations in plasma were determined by LC-MS/MS, and PK parameters were calculated to characterize the pharmacokinetic behavior of the compounds of the present disclosure in plasma.
# BALB/c nude mice, female, supplied by Jiangsu GemPharmatech Co., Ltd.
# Dosing regimen for BALB/c nude mice: The PO (oral) experimental group consisted of 3 mice, which were administered at a dose of 30 mg/kg and a volume of 10 mL/kg. The dosing vehicle was 5% (v/v) DMSO/10% (v/v) Solutol/85% (v/v) saline.
# Following administration, 0.025 mL of blood was collected via venipuncture at the following time points: 0.0833 (IV), 0.25, 0.5, 1, 2, 4, 8, and 24 hours. Blood samples were collected into EDTA-K2 tubes and centrifuged at 4°C and 2000 g for 10 minutes to separate plasma, which was stored at -80°C.
# Mouse plasma processing: • 1) 15 µL of plasma was mixed with 200 µL of acetonitrile for protein precipitation. The mixture was vortexed and centrifuged for 15 minutes. • 2) The supernatant after processing was diluted with water and analyzed by LC/MS/MS to determine the concentration of the test compound.
# Pharmacokinetic parameters were calculated using WinNonlin 6.1. Specifically, Cmax represents maximum plasma concentration, CL represents clearance, Vss represents volume of distribution at steady state, T1/2 represents terminal elimination half-life, MRTInf represents mean residence time, AUC represents area under the plasma concentration-time curve, and F represents bioavailability. Table 18: Pharmacokinetic parameters of the compounds of the present disclosure in CD-1 mice
# [4] = KURAMOCHI xenograft, oral administration
Structure (SMILES),pIC50 (KURAMOCHI cells),pIC50 (PARG),also measured
C[C@H]1CN(c2cc(S(=O)(=O)NC3(C)CC3)cc3c2n2ncnc2n3-c2nnc(C(F)F)s2)C[C@H](C)N1 [Compound 065M],8.52,8.85,"tolerability in mice (in words) [1, 4]: good tolerability; tumor growth inhibition (in words) [1, 4]: significantly inhibited tumor growth; TGI (%) ([1]; 30 mg/kg, QD × 16 days): 127%; Tumor volume (mm^3) ([1]; 30 mg/kg, QD × 16 days): 62 ± 6 mm^3"
C[C@H]1CN(c2cc(S(=O)(=O)NC3(C)CC3)cc3c2nc([C@@H]2CCCO2)n3-c2nnc(C(F)F)s2)C[C@H](C)N1 [Compound 077B2],8.52,8.80,"tolerability in mice (in words) [2]: good tolerability; tumor growth inhibition (in words) [1, 4]: significantly inhibited tumor growth; TGI (%) ([1]; 30 mg/kg, BID × 16 days): 127%; Tumor volume (mm^3) ([1]; 30 mg/kg, BID × 16 days): 61 ± 9 mm^3; TGI (%) ([1]; 100 mg/kg, QD × 16 days): 127%; Tumor volume (mm^3) ([1]; 100 mg/kg, QD × 16 days): 57 ± 10 mm^3"
C[C@H]1CN(c2cc(S(=O)(=O)NC3(C)CC3)cn3c(-c4nnc(C(F)F)s4)c([C@@H]4CCCO4)nc23)C[C@H](C)N1 [Compound 080B2],9.22,9.40,AUC [3]: 8.35 µM·h; Cmax [3]: 1870 nM; MRT inf [3]: 3.27 h; half-life [3]: 2.45 h
CC1(NS(=O)(=O)c2cc(N3CCNCC3)c3ncn(-c4nnc(C(F)F)s4)c3c2)CC1 [Compound B001],7.28,7.35,–
CC(C)C(=O)N1CCN(c2cc(S(=O)(=O)NC3(C)CC3)cc3c2ncn3-c2nnc(C(F)F)s2)CC1 [Compound B002],7.80,7.94,–
CN(C)C(=O)N1CCN(c2cc(S(=O)(=O)NC3(C)CC3)cc3c2ncn3-c2nnc(C(F)F)s2)CC1 [Compound B003],7.80,7.99,–
CC(C)C(=O)N1CCN(c2cc(S(=O)(=O)NC3(C#N)CC3)cc3c2ncn3-c2nnc(C(F)F)s2)CC1 [Compound B010],7.23,7.50,–
CN(C)C(=O)N1CCN(c2cc(S(=O)(=O)NC3(C#N)CC3)cc3c2ncn3-c2nnc(C(F)F)s2)CC1 [Compound B011],7.49,8.00,–
N#CC1(NS(=O)(=O)c2cc(N3CCN(C(=O)N4CCCC4)CC3)c3ncn(-c4nnc(C(F)F)s4)c3c2)CC1 [Compound B013],7.28,7.67,–
CC(C)(F)C(=O)N1CCN(c2cc(S(=O)(=O)NC3(C#N)CC3)cc3c2ncn3-c2nnc(C(F)F)s2)CC1 [Compound B014],7.37,7.50,–
C[C@H]1CN(c2cc(S(=O)(=O)NC3(C#N)CC3)cc3c2ncn3-c2nnc(C(F)F)s2)C[C@H](C)N1 [Compound B016],7.13,7.67,–
C[C@H]1CN(c2cc(S(=O)(=O)NC3(C#N)CC3)cc3c2ncn3-c2nnc(C(F)F)s2)C[C@H](C)N1C(=O)N(C)C [Compound B017],7.70,7.50,–
COc1nc2c(N3CCN(C(=O)N(C)C)CC3)cc(S(=O)(=O)NC3(C#N)CC3)cc2n1-c1nnc(C(F)F)s1 [Compound B019],7.72,8.20,–
COc1nc2c(N3CCN(C(=O)C(C)C)CC3)cc(S(=O)(=O)NC3(C#N)CC3)cc2n1-c1nnc(C(F)F)s1 [Compound B020],7.23,7.70,–
Cc1nc2c(N3CCN(C(=O)N(C)C)CC3)cc(S(=O)(=O)NC3(C#N)CC3)cc2n1-c1nnc(C(F)F)s1 [Compound B021],7.29,7.60,–
CN(C)C(=O)N1CCN(c2cc(S(=O)(=O)NC3(C)CC3)cc3c2nnn3-c2nnc(C(F)F)s2)CC1 [Compound C002],7.60,7.32,–
